# Laboratory results taken from ChEMBL document CHEMBL4706583, “2-Anilinoquinoline based arylamides as broad spectrum anticancer agents with B-RAF/C-RAF kinase inhibitory effects: Design, synthesis, in vitro cell-based and oncogenic kinase assessments” (Eur J Med Chem, 2020).
# Key:
# [1] = tested on: HCT-116; assay: Cell cycle arrest in human HCT-116 cells assessed as accumulation at G1/G0 phase at 2.5 uM measured after 24 hrs by propidium iodide staining based flow cytometry (reference value: 65%); type: functional
# [2] = tested on: HCT-116; assay: Cell cycle arrest in human HCT-116 cells assessed as accumulation at sub-G1 phase at 5 uM measured after 24 hrs by propidium iodide staining based flow cytometry (reference value: 8.7%); type: functional
# [3] = tested on: HCT-116; assay: Cell cycle arrest in human HCT-116 cells assessed as accumulation at G2/M phase at 5 uM measured after 24 hrs by propidium iodide staining based flow cytometry (reference value: 19.2%); type: functional
# [4] = tested on: HCT-116; assay: Cell cycle arrest in human HCT-116 cells assessed as accumulation at G1/G0 phase at 1.25 uM measured after 24 hrs by propidium iodide staining based flow cytometry (reference value: 65%); type: functional
# [5] = tested on: HCT-116; assay: Cell cycle arrest in human HCT-116 cells assessed as accumulation at S phase at 5 uM measured after 48 hrs by propidium iodide staining based flow cytometry (reference value: 10.4%); type: functional
# [6] = molecular target: Macrophage colony-stimulating factor 1 receptor (Homo sapiens) (UniProt P07333); assay: Inhibition of human FMS at 10 uM using poly[Glu:Tyr] (4:1) as substrate in presence of [gamma-33P]ATP by scintillation counting method relative to control
# Macrophage colony-stimulating factor 1 receptor (Homo sapiens), sequence (P07333 whole entry): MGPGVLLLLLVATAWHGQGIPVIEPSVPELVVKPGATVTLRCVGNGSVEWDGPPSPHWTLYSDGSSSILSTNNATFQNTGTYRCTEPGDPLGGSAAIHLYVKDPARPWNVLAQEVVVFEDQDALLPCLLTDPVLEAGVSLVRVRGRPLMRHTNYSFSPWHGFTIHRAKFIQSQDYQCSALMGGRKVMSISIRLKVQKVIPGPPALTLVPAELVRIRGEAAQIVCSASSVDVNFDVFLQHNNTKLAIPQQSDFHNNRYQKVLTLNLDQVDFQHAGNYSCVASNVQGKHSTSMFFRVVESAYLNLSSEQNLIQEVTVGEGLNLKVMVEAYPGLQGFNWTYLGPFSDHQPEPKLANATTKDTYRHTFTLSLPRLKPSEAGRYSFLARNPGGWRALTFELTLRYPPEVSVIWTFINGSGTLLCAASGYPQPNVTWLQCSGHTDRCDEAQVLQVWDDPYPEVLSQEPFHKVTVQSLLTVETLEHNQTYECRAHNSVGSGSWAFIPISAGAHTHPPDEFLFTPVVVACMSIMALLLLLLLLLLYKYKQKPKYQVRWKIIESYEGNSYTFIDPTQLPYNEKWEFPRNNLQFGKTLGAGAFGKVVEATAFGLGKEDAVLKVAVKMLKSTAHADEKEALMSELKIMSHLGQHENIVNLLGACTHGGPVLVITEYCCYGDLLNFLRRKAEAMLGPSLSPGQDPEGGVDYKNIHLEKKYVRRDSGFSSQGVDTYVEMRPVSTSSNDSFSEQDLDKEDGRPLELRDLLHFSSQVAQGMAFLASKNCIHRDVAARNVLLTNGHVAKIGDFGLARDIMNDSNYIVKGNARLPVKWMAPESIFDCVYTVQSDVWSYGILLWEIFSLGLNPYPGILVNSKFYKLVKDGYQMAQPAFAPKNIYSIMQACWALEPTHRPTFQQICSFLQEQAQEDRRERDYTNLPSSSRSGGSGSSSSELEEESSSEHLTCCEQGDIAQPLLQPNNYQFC
# [7] = tested on: HCT-116; assay: Cell cycle arrest in human HCT-116 cells assessed as accumulation at sub-G1 phase at 1.25 uM measured after 48 hrs by propidium iodide staining based flow cytometry (reference value: 17%); type: functional
# [8] = tested on: HCT-116; assay: Cell cycle arrest in human HCT-116 cells assessed as accumulation at G2/M phase at 1.25 uM measured after 48 hrs by propidium iodide staining based flow cytometry (reference value: 20.4%); type: functional
# [9] = tested on: HCT-116; assay: Cell cycle arrest in human HCT-116 cells assessed as accumulation at G2/M phase at 2.5 uM measured after 48 hrs by propidium iodide staining based flow cytometry (reference value: 20.4%); type: functional
# [10] = tested on: HCT-116; assay: Cell cycle arrest in human HCT-116 cells assessed as accumulation at G1/G0 phase at 2.5 uM measured after 48 hrs by propidium iodide staining based flow cytometry (reference value: 52.2%); type: functional
# [11] = tested on: HCT-116; assay: Cell cycle arrest in human HCT-116 cells assessed as accumulation at G1/G0 phase at 5 uM measured after 48 hrs by propidium iodide staining based flow cytometry (reference value: 52.2%); type: functional
SMILES,Activity [1] [%],Activity [2] [%],Activity [3] [%],Activity [4] [%],Activity [5] [%],inhibition [6] [%],Activity [7] [%],Activity [8] [%],Activity [9] [%],Activity [10] [%],Activity [11] [%]
COc1cccc2nc(Nc3cccc(NC(=O)c4ccc(N5CCN(C)CC5)c(C(F)(F)F)c4)c3)ccc12,69.7,9.1,13.7,66.6,–,–,–,–,–,–,–
CCN1CCN(c2cc(C(=O)Nc3cccc(Nc4ccc5c(OC)cccc5n4)c3)cc(C(F)(F)F)c2)CC1,–,–,–,–,7.4,60.7,21,15.5,12.9,57.1,64.1
